Measurements published in patent publication US8562946B2, “Miniaturized 62Zn/62Cu generator for high concentration clinical delivery of 62Cu kit formulation for the facile preparation of radiolabeled Cu-bis(thiosemicarbazone) compounds” (Proportional Technologies, Inc., priority 2003, dated 2013).
Read-outs that look alike come from different tables or passages of the source.

Tests used:
[1] = octanol/water partition coefficients of Cu bis(thiosemicarbazone) complexes; type: physicochemical
[2] = cited from earlier work
[3] = ligand solubility (DMSO, water); type: physicochemical; settings: crystalline form dissolved in DMSO
Experimental: Studies evaluating the compatibility of the bis(thiosemicarbazone) ligands with lyophilization based kit synthesis were conducted using H2PTSM as a model compound. The first of these studies evaluated the feasibility of ligand lyophilization and rapid reconstitution. The entire class of bis(thiosemicarbazone) compounds is very insoluble in water. Consequently, in order to prepare a principally aqueous solution for lyophilization, the crystalline form of the H2PTSM was dissolved at the maximum concentration in dimethylsulfoxide (DMSO), (200 mg/mL H2PTSM). […] To minimize the possibility of ligand precipitation, the DMSO solution was added to hot water (90° C.) during rapid stifling. This solution was then cooled to room temperature and assayed for potency using a spectrophotometer. The very small amount of DMSO in the aqueous solution is expected to sublimate along with water during lyophilization. In order to ensure maximum potency after lyophilization, an excipient (either dextrose [6.7 mg/mL], trehalose [6.7 mg/mL] or sodium acetate [5.4 mg/mL]) was added. The purpose of the excipient was to prevent the ligand from crystallizing out by maintaining dispersion in the cake formed during lyophilization. The sodium acetate performed the added function of buffering the final product to acceptable pH upon addition of 0.1-0.15 mL of ^62Zn/^62Cu generator eluted solution. […]

[4] = in humans; cited from earlier work
[5] = most animal species other than humans; cited from earlier work

CCC(C=NNC(N)=S)=NNC(N)=S.[Cu] [ETS, ^62Cu ethylglyoxal bis(thiosemicarbazone)]
log P ([1]; octanol/water, from measured partition coefficients P of the corresponding 67Cu-complexes): 1.35 | binding to blood plasma [2]: low reversible binding

CNC(=S)NN=C(C)C(C)=NNC(=S)NC [H2ATSM, diacetyl-bis(N4-methylthiosemicarbazone)]
difference in octanol/water partition coefficients ([1]; H2ATSM vs H2PTSM (Table 2)): 0.34

CNC(=S)NN=CC(C)=NNC(=S)NC [H2PTSM, pyruvaldehyde bis(N4-methylthiosemicarbazone)]
maximum concentration in dimethylsulfoxide (DMSO) [3]: 200 mg/mL

CN=C([S-])N/N=C/C(C)=N/NC([S-])=NC.[Cu+2] [PTSM, Copper(II) ^62Cu pyruvaldehyde bis(N4-methylthiosemicarbazone)]
binding to blood [4]: significant binding | binding to blood [5]: low binding
